Here are results for one molecule from PubChem BioAssay (NCI).

Some test systems named below: CAKI-1 renal; COLO 205 colon; HS 578T breast; HT29 colon; K-562 leukemia; MDA-N; MOLT-4 leukemia; NCI-H460 lung; NCI/ADR-RES ovarian; OVCAR-5 ovarian; SNB-19 CNS.
Holding throughout (test): inhibition of tumour cell growth, NCI panel, 48 h

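Five compound concentrations were applied to cells in 96-well plates for 48 hours; endpoints were derived by simple linear interpolation of the resulting dose-response curve. TGI denotes the concentration required for complete inhibition of growth.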

Take `COc1ccc(Cc2nc3cc(C(F)(F)F)ccc3n2C[C@@H]2CCCN3CCCCC23)cc1` (stereo partly specified): the TGI in the experiment with CAKI-1 renal is 25.6 µM; with COLO 205 colon it was 18.9 µM; in the experiment with HS 578T breast it was 65.9 µM; with HT29 colon it was 15.4 µM; with K-562 leukemia, over 64.8 µM; with MDA-N, 13.2 µM. The TGI in the experiment on MOLT-4 leukemia is 31.7 µM; in the experiment with NCI-H460 lung, 31.1 µM; with NCI/ADR-RES ovarian it was 30.7 µM; in the experiment with OVCAR-5 ovarian it was 27.8 µM; in the experiment with SNB-19 CNS, 27.4 µM.
